Reference: patent US3932383A, “9-Dihydroniddamycin A compounds and related 3-(O)-esters and the process for their preparation” (Abbott Laboratories, priority 1974, dated 1976)
Values after ≈ are worked out from the molar mass of the structure shown.

Experiments:
Format in all cases: cell-based
[1] = tested on: Streptococcus pyogenes C203; assay: two-fold tube dilution test; conditions: brain-heart infusion broth, 24 hours at 37° C., read-out: Minimum Inhibitory Concentration
Procedure: (§1) Three niddamycin and two dihydroniddamycin compounds were tested for their activity against Streptococcus pyogenes C203, Diplococcus pneumoniae 6301 and Mycoplasma pneumoniae FH.
(§2) A standard two-fold tube dilution test was used. The medium and inoculum were varied with each culture.
In the test for activity against Streptococcus pyrogenes C203, 5 ml. portions of brain-heart infusion broth were used with 0.1 ml. of a 1:100 dilution culture. The test was incubated for 24 hours at 37° C.

Mycoplasma pneumoniae FH [2] = assay: two-fold tube dilution test; conditions: 144 h, PPLO broth, 6 days at 37° C., read-out: Minimum Inhibitory Concentration
Procedure: as §1, §2
In the test for activity against Mycoplasma pneumoniae FH, 4.5 ml. portions of PPLO broth were used with 0.5 ml. of a 1:100 dilution culture. the test was incubated for 6 days at 37° C.

Escherichia coli Juhl = assay: agar two-fold dilution test; conditions: 37° C., read-out: Minimum Inhibitory Concentration
Procedure: (§3) Two niddamycin derivatives were tested for their activity against 21 organisms.
(§4) An agar dilution two-fold dilution test was used for the first 14 bacterial organisms, while the remaining seven were tested by means of a two-fold tube dilution method. The incubation for all the tests was carried out at 37° C.
(§5) The niddamycin base compound (M-188 ) was used as the control compound.

[3] = tested on: Klebsiella pneumoniae 10031; assay: agar two-fold dilution test; conditions: 37° C., read-out: Minimum Inhibitory Concentration
Procedure: as §3, §4, §5

[4] = tested on: Pasteurella multocida 10544; assay: agar two-fold dilution test; conditions: 37° C., read-out: Minimum Inhibitory Concentration
Procedure: as §3, §4, §5

[5] = tested on: Proteus mirabilis Finland No. 9; assay: agar two-fold dilution test; conditions: 37° C., read-out: Minimum Inhibitory Concentration
Procedure: as §3, §4, §5

[6] = tested on: Proteus vulgaris Abbott JJ; assay: agar two-fold dilution test; conditions: 37° C., read-out: Minimum Inhibitory Concentration
Procedure: as §3, §4, §5

[7] = tested on: Pseudomonas aeruginosa BMH No. 10; assay: agar two-fold dilution test; conditions: BMHNO.10, 37° C., read-out: Minimum Inhibitory Concentration
Procedure: as §3, §4, §5

[8] = tested on: Salmonella typhimurium Ed No. 9; assay: agar two-fold dilution test; conditions: Salmonella enterica, 37° C., read-out: Minimum Inhibitory Concentration
Procedure: as §3, §4, §5

Shigella sonnei 9290 = assay: agar two-fold dilution test; conditions: 37° C., read-out: Minimum Inhibitory Concentration
Procedure: as §3, §4, §5

[9] = tested on: Staphylococcus aureus 9144; assay: agar two-fold dilution test; conditions: 37° C., read-out: Minimum Inhibitory Concentration
Procedure: as §3, §4, §5

[10] = tested on: Staphylococcus aureus Smith ER; assay: agar two-fold dilution test; conditions: read-out: Minimum Inhibitory Concentration
Procedure: as §3, §4, §5

[11] = tested on: Staphylococcus aureus Smith; assay: agar two-fold dilution test; conditions: 37° C., read-out: Minimum Inhibitory Concentration
Procedure: as §3, §4, §5

[12] = tested on: Staphylococcus aureus Wise 155; assay: agar two-fold dilution test; conditions: WISE155, 37° C., read-out: Minimum Inhibitory Concentration
Procedure: as §3, §4, §5

[13] = tested on: Streptococcus faecalis 10541; assay: agar two-fold dilution test; conditions: Enterococcus faecalis, 37° C., read-out: Minimum Inhibitory Concentration
Procedure: as §3, §4, §5

[14] = tested on: Streptococcus pyogenes Roper; assay: agar two-fold dilution test; conditions: 37° C., read-out: Minimum Inhibitory Concentration
Procedure: as §3, §4, §5

Crithidia fasciculata = assay: two-fold tube dilution method; conditions: 37° C., read-out: Minimum Inhibitory Concentration
Procedure: as §3, §4, §5

[15] = tested on: Haemophilus influenzae 9334; assay: two-fold tube dilution method; conditions: 37° C., read-out: Minimum Inhibitory Concentration
Procedure: as §3, §4, §5

[16] = tested on: Mycoplasma gallispeticum S6; assay: two-fold tube dilution method; conditions: 37° C., read-out: Minimum Inhibitory Concentration
Procedure: as §3, §4, §5

[17] = tested on: Mycoplasma granularum 19168; assay: two-fold tube dilution method; conditions: Acholeplasma granularum, 37° C., read-out: Minimum Inhibitory Concentration
Procedure: as §3, §4, §5

[18] = tested on: Mycoplasma hyorhinis 17981; assay: two-fold tube dilution method; conditions: 37° C., read-out: Minimum Inhibitory Concentration
Procedure: as §3, §4, §5

Mycoplasma pneumoniae FH [19] = assay: two-fold tube dilution method; conditions: 37° C. (Table 2), read-out: Minimum Inhibitory Concentration
Procedure: as §3, §4, §5

[20] = tested on: Trichomonas vaginalis C1M1; assay: two-fold tube dilution method; conditions: 37° C., read-out: Minimum Inhibitory Concentration
Procedure: as §3, §4, §5

A. versicolor = assay: standard FG (fungi) screening program; conditions: Aspergillus versicolor, read-out: Minimum Inhibitory Concentration
Procedure: (§6) The samples were also tested on the standard FG (fungi) screening program.
as §5

Alternaria label isolate = assay: standard FG (fungi) screening program; conditions: read-out: Minimum Inhibitory Concentration
Procedure: as §6, §5

C. globosum = assay: standard FG (fungi) screening program; conditions: Chaetomium globosum, read-out: Minimum Inhibitory Concentration
Procedure: as §6, §5

F. oxysporum = assay: standard FG (fungi) screening program; conditions: Fusarium oxysporum, read-out: Minimum Inhibitory Concentration
Procedure: as §6, §5

M. verrucaria = assay: standard FG (fungi) screening program; conditions: read-out: Minimum Inhibitory Concentration
Procedure: as §6, §5

P. citrinum = assay: standard FG (fungi) screening program; conditions: Penicillium citrinum, read-out: Minimum Inhibitory Concentration
Procedure: as §6, §5

Rhizopus nigricans = assay: standard FG (fungi) screening program; conditions: Rhizopus stolonifer, read-out: Minimum Inhibitory Concentration
Procedure: as §6, §5

[21] = tested on: Diplococcus pneumoniae 6301; assay: two-fold tube dilution test; conditions: Streptococcus pneumoniae, brain-heart infusion broth and 20% horse serum, 24 hours at 37° C., read-out: Minimum Inhibitory Concentration
Procedure: as §1, §2
In the test for activity against Diplococcus pneumoniae 6301, 5 ml. portions of brain-heart infusion broth and 20% horse serum were used with 0.1 ml. of 1:100 dilution culture. The test was incubated for 24 hours at 37° C.

| SMILES | MIC [1] [µg/mL] | MIC (Mycoplasma pneumoniae FH [2]) [µg/mL] | MIC (Escherichia coli Juhl) [µg/mL] | MIC [3] [µg/mL] | MIC [4] [µg/mL] | MIC [5] [µg/mL] | MIC [6] [µg/mL] | MIC [7] [µg/mL] | MIC [8] [µg/mL] | MIC (Shigella sonnei 9290) [µg/mL] | MIC [9] [µg/mL] | MIC [10] [µg/mL] | MIC [11] [µg/mL] | MIC [12] [µg/mL] | MIC [13] [µg/mL] | MIC [14] [µg/mL] | MIC (Crithidia fasciculata) [µg/mL] | MIC [15] [µg/mL] | MIC [16] [µg/mL] | MIC [17] [µg/mL] | also measured |
| --- | --- | --- | --- | --- | --- | --- | --- | --- | --- | --- | --- | --- | --- | --- | --- | --- | --- | --- | --- | --- | --- |
| COC(CC1CC(C)C(=O)C=CC=CCC(C)OC(=O)CC(OC(C)=O)C(OC)C1OC1OC(C)C(OC2CC(C)(O)C(OC(=O)CC(C)C)C(C)O2)C(N(C)C)C1O)OC (stereo not drawn) [Compound 6B, 3-(O)-Acetylniddamycin dimethyl acetal] | 12.5 (≈ 14.3 µM) | 25 (≈ 28.7 µM) |  |  |  |  |  |  |  |  |  |  |  |  |  |  |  |  |  |  |  |
| COC1C(OC(C)=O)CC(=O)OC(C)CC=CC=CC(O)C(C)CC(CC=O)C1OC1OC(C)C(OC2CC(C)(O)C(OC(=O)CC(C)C)C(C)O2)C(N(C)C)C1O (single isomer, unassigned) [Compound 8B, 3-(O)-Acetyl-9-Dihydroniddamycin A] |  |  | > 100 | 25 (≈ 30.2 µM) | 12.5 (≈ 15.1 µM) | > 100 | > 100 | > 100 | > 100 | > 100 | 0.78 (≈ 0.942 µM) | > 100 | 0.78 (≈ 0.942 µM) | 1.56 (≈ 1.88 µM) | 1.56 (≈ 1.88 µM) | > 100 | > 100 | 6.2 (≈ 7.49 µM) | 0.25 (≈ 0.302 µM) | 5 (≈ 6.04 µM) | MIC [18]: 0.5 µg/mL (≈ 0.604 µM); MIC (Mycoplasma pneumoniae FH [19]): 25 µg/mL (≈ 30.2 µM); MIC [20]: > 100 µg/mL; MIC (A. versicolor): > 100 µg/mL; MIC (Alternaria label isolate): > 100 µg/mL; MIC (C. globosum): > 100 µg/mL; MIC (F. oxysporum): > 100 µg/mL; MIC (M. verrucaria): > 100 µg/mL; MIC (P. citrinum): > 100 µg/mL; MIC (Rhizopus nigricans): > 100 µg/mL |
| COC(CC1CC(C)C(=O)C=CC=CCC(C)OC(=O)CC(OC(C)=O)C(OC)C1OC1OC(C)C(OC2CC(C)(O)C(OC(=O)CC(C)C)C(C)O2)C(N(C)C)C1OC(C)=O)OC (stereo not drawn) [Compound 4B, 2',3-Di-(O)-acetylniddamycin dimethyl acetal] | > 100 | > 100 |  |  |  |  |  |  |  |  |  |  |  |  |  |  |  |  |  |  | MIC [21]: > 100 µg/mL |
| COC1C(O)CC(=O)OC(C)CC=CC=CC(O)C(C)CC(CC=O)C1OC1OC(C)C(OC2CC(C)(O)C(OC(=O)CC(C)C)C(C)O2)C(N(C)C)C1O (single isomer, unassigned) [Compound 5, 9-Dihydroniddamycin A] |  |  | > 100 | 12.5 (≈ 15.9 µM) | 12.5 (≈ 15.9 µM) | > 100 | > 100 | > 100 | > 100 | > 100 | 0.78 (≈ 0.992 µM) | > 100 | 0.78 (≈ 0.992 µM) | 1.56 (≈ 1.98 µM) | 0.78 (≈ 0.992 µM) | > 100 | > 100 | 6.2 (≈ 7.89 µM) | 0.25 (≈ 0.318 µM) | 2.5 (≈ 3.18 µM) | MIC [18]: 0.25 µg/mL (≈ 0.318 µM); MIC (Mycoplasma pneumoniae FH [19]): 50 µg/mL (≈ 63.6 µM); MIC [20]: > 100 µg/mL; MIC (A. versicolor): > 100 µg/mL; MIC (Alternaria label isolate): > 100 µg/mL; MIC (C. globosum): > 100 µg/mL; MIC (F. oxysporum): > 100 µg/mL; MIC (M. verrucaria): > 100 µg/mL; MIC (P. citrinum): > 100 µg/mL; MIC (Rhizopus nigricans): > 100 µg/mL |
| COC(CC1CC(C)C(=O)C=CC=CCC(C)OC(=O)CC(O)C(OC)C1OC1OC(C)C(OC2CC(C)(O)C(OC(=O)CC(C)C)C(C)O2)C(N(C)C)C1O)OC (stereo not drawn) [Compound 2, Niddamycin dimethyl acetal] | 0.78 (≈ 0.94 µM) | 25 (≈ 30.1 µM) |  |  |  |  |  |  |  |  |  |  |  |  |  |  |  |  |  |  | MIC [21]: ≤ 1.56 µg/mL |
| COC(CC1CC(C)C(O)C=CC=CCC(C)OC(=O)CC(OC(C)=O)C(OC)C1OC1OC(C)C(OC2CC(C)(O)C(OC(=O)CC(C)C)C(C)O2)C(N(C)C)C1O)OC (single isomer, unassigned) [Compound 7B, 3-(O)-Acetyl-9-dihydroniddamycin A dimethyl acetal] | 100 (≈ 114 µM) | 50 (≈ 57.2 µM) |  |  |  |  |  |  |  |  |  |  |  |  |  |  |  |  |  |  |  |
| COC1C(O)CC(=O)OC(C)CC=CC=CC(=O)C(C)CC(CC=O)C1OC1OC(C)C(OC2CC(C)(O)C(OC(=O)CC(C)C)C(C)O2)C(N(C)C)C1O (stereo not drawn) [Niddamycin Base, niddamycin] |  |  | > 100 | 12.5 (≈ 15.9 µM) | 12.5 (≈ 15.9 µM) | > 100 | > 100 | > 100 | > 100 | > 100 | 0.39 (≈ 0.497 µM) | > 100 | 0.39 (≈ 0.497 µM) | 0.78 (≈ 0.995 µM) | 0.78 (≈ 0.995 µM) | > 100 | > 100 | 3.1 (≈ 3.95 µM) | 0.1 (≈ 0.128 µM) | 1 (≈ 1.28 µM) | MIC [18]: 0.25 µg/mL (≈ 0.319 µM); MIC (Mycoplasma pneumoniae FH [19]): 10 µg/mL (≈ 12.8 µM); MIC [20]: > 100 µg/mL; MIC (A. versicolor): > 100 µg/mL; MIC (Alternaria label isolate): > 100 µg/mL; MIC (C. globosum): > 100 µg/mL; MIC (F. oxysporum): > 100 µg/mL; MIC (M. verrucaria): > 100 µg/mL; MIC (P. citrinum): > 100 µg/mL; MIC (Rhizopus nigricans): > 100 µg/mL |
| COC(CC1CC(C)C(O)C=CC=CCC(C)OC(=O)CC(O)C(OC)C1OC1OC(C)C(OC2CC(C)(O)C(OC(=O)CC(C)C)C(C)O2)C(N(C)C)C1O)OC (single isomer, unassigned) [Compound 3, 9-Dihydroniddamycin A dimethyl acetal] | 25 (≈ 30 µM) | 50 (≈ 60.1 µM) |  |  |  |  |  |  |  |  |  |  |  |  |  |  |  |  |  |  |  |
